Here are results for 47 compounds from the Biogen ADME set (Fang et al. 2023).

Converted amounts (≈) assume the structure as drawn.

For this data set the following is noted: for aqueous solubility: pH 6.8.

Turning to `CCC1(CC)NC(=O)N(CC(=O)N2CCOCC3(CCCC3)C2)C1=O`, the MDR1-MDCK efflux ratio worked out at 81.5; the intrinsic clearance, human liver microsomes came to 1.84 L/h/kg; the intrinsic clearance, rat liver microsomes was 13 L/h/kg; the aqueous solubility – broadly, how much of the substance goes into solution per volume – stood at 0.0634 mg/mL (≈ 180 µM).
As to `CCCn1ncc2[nH]c(-c3cc(Cn4cncn4)c(C)cc3C)nc21`, the MDR1-MDCK efflux ratio was 90.9; the intrinsic clearance, human liver microsomes was 3.1 L/h/kg; the intrinsic clearance, rat liver microsomes was found to be 11.9 L/h/kg; the aqueous solubility amounted to 0.0336 mg/mL (≈ 100 µM).
Take `Cc1cnn(C2CN(CC3(O)CCCCC3)C2)c1`: the MDR1-MDCK efflux ratio is 0.488; the intrinsic clearance, human liver microsomes was 3.28 L/h/kg; the intrinsic clearance, rat liver microsomes came to 114 L/h/kg; the aqueous solubility stood at 0.0326 mg/mL (≈ 131 µM).
Take `CC(C)C[C@H](C(=O)N[C@H](C(=O)OC1CCCC1)c1ccccc1)[C@@H](O)C(=O)NO`: the intrinsic clearance, human liver microsomes worked out at 3.32 L/h/kg and the intrinsic clearance, rat liver microsomes is 35.9 L/h/kg.
Consider `CC(C)(C(=O)c1ccccc1)/[N+]([O-])=C/c1ccc(F)cc1`, for which the MDR1-MDCK efflux ratio worked out at 0.68; the intrinsic clearance, human liver microsomes was 0.458 L/h/kg; the intrinsic clearance, rat liver microsomes worked out at 3.68 L/h/kg.
Take `Cc1cc(C)n(C(=O)CCCC(=O)n2nc(C)cc2C)n1`: the intrinsic clearance, human liver microsomes was found to be 36.5 L/h/kg and the intrinsic clearance, rat liver microsomes is 140 L/h/kg.
For the compound `CN(CCN1CCCCC1)c1cncc(C(N)=O)n1`, the MDR1-MDCK efflux ratio stood at 4.41; the intrinsic clearance, human liver microsomes is ≤ 0.284 L/h/kg; the intrinsic clearance, rat liver microsomes came to 5.71 L/h/kg.
`COC(=O)c1c(C)[nH]c(C(=O)N(C)Cc2ccc(OC)c(F)c2)c1C`: the MDR1-MDCK efflux ratio came to 1.5; the intrinsic clearance, human liver microsomes was found to be 3.3 L/h/kg; the intrinsic clearance, rat liver microsomes is 35.5 L/h/kg; the aqueous solubility stood at 0.0473 mg/mL (≈ 136 µM).
`c1cnc(NCCc2cccc3cccnc23)nc1` came in with an intrinsic clearance, human liver microsomes of 6.3 L/h/kg; an intrinsic clearance, rat liver microsomes of 52.7 L/h/kg; an aqueous solubility of 0.037 mg/mL (≈ 148 µM).
On to `Cc1cc(N(C)C)nc(-n2ccnc2)n1`, for which the MDR1-MDCK efflux ratio amounted to 0.704; the intrinsic clearance, human liver microsomes turned out to be 2.38 L/h/kg; the intrinsic clearance, rat liver microsomes is 4.98 L/h/kg; the aqueous solubility amounted to 0.0285 mg/mL (≈ 140 µM).
Regarding `NC(=O)CN1CCC(CCc2ccccc2)CC1`, the intrinsic clearance, human liver microsomes is ≤ 0.284 L/h/kg; the intrinsic clearance, rat liver microsomes came to 27.7 L/h/kg; the aqueous solubility is 0.0413 mg/mL (≈ 168 µM).
Regarding `COc1ccc(CC(=O)N2CCc3[nH]c4ccc(Cl)cc4c3C2)cc1OC`, the MDR1-MDCK efflux ratio was 6.37; the intrinsic clearance, human liver microsomes was found to be 7.17 L/h/kg; the intrinsic clearance, rat liver microsomes stood at 40.5 L/h/kg; the aqueous solubility turned out to be 0.0067 mg/mL (≈ 17.4 µM).
For `CN(C)c1nc(CN2CCOCC2)nc2scc(-c3cccs3)c12`, the MDR1-MDCK efflux ratio is 1.03; the intrinsic clearance, human liver microsomes was determined as 9.89 L/h/kg; the intrinsic clearance, rat liver microsomes was 107 L/h/kg; the aqueous solubility worked out at 0.0573 mg/mL (≈ 159 µM).
Turning to `Cc1cc(C(=O)Nc2nnc3n2CCCC3)n(C)n1`, the MDR1-MDCK efflux ratio is 1.44; the intrinsic clearance, human liver microsomes is ≤ 0.284 L/h/kg; the intrinsic clearance, rat liver microsomes stood at 0.684 L/h/kg.
For `O=C(c1n[nH]c2c1COCC2)N1CCC2(C=Cc3ccccc32)CC1`, in that order: 1.5, 0.291 L/h/kg and 52.2 L/h/kg.
`CC(=O)NCc1ncc(-c2ccccc2C(=O)O)cn1`: the intrinsic clearance, human liver microsomes was ≤ 0.284 L/h/kg; the intrinsic clearance, rat liver microsomes was ≤ 0.64 L/h/kg; the aqueous solubility amounted to 0.0594 mg/mL (≈ 219 µM).
On to `CCOc1cc(N2CCOC3(CCCC3)C2)ncn1`, for which the MDR1-MDCK efflux ratio was 0.579; the intrinsic clearance, human liver microsomes turned out to be 2.24 L/h/kg; the intrinsic clearance, rat liver microsomes was determined as 37.9 L/h/kg.
In the case of `O=C(NCCc1ccccc1)c1ccc(NC(=O)N2CCCCc3ccccc32)cc1`, the MDR1-MDCK efflux ratio came out at 2.11; the fraction unbound, human plasma turned out to be 0.0119; the intrinsic clearance, human liver microsomes was 15.4 L/h/kg.
As for `CN1CC(=O)N(CCCC(=O)Nc2cccc(C#Cc3cccs3)c2)C1=O`, the MDR1-MDCK efflux ratio is 4.28; the intrinsic clearance, human liver microsomes came to 1.18 L/h/kg; the intrinsic clearance, rat liver microsomes turned out to be 44.3 L/h/kg; the aqueous solubility was 0.0432 mg/mL (≈ 113 µM).
In the case of `O=C(CN1CCCN(c2ccc(C(F)(F)F)cn2)CC1)Nc1ccccc1`, the MDR1-MDCK efflux ratio stood at 0.748; the intrinsic clearance, human liver microsomes was 6.7 L/h/kg; the intrinsic clearance, rat liver microsomes is 48.4 L/h/kg; the aqueous solubility was 0.0017 mg/mL (≈ 4.49 µM).
`Cc1cc(N2CCC(C(=O)NC3CCCCC3)CC2)nc(-c2ccncc2)n1` came in with an intrinsic clearance, human liver microsomes of 4.02 L/h/kg and an intrinsic clearance, rat liver microsomes of 11.6 L/h/kg.
`O=C(C1CCCCC1)N1CCC[C@H]1Cn1nnc(-c2cccs2)n1` returned an intrinsic clearance, human liver microsomes of 7.77 L/h/kg and an intrinsic clearance, rat liver microsomes of 307 L/h/kg.
For `Cn1cc(C(=O)NCCc2c[nH]c3ccccc23)c(-c2cccnc2)n1`, the MDR1-MDCK efflux ratio was found to be 29; the intrinsic clearance, human liver microsomes amounted to 2.17 L/h/kg; the intrinsic clearance, rat liver microsomes is 24.9 L/h/kg; the aqueous solubility came out at 0.0563 mg/mL (≈ 163 µM).
Compound `O=C(CN1CCSC1=O)N1CCN(Cc2sc3ccccc3c2Cl)CC1` had an intrinsic clearance, human liver microsomes of 4.36 L/h/kg; an intrinsic clearance, rat liver microsomes of 21 L/h/kg; an aqueous solubility of 0.0544 mg/mL (≈ 133 µM).
Turning to `COc1ccc(N2CCCN(CC3CCN(C(=O)C4CC4)CC3)CC2)cc1`, the MDR1-MDCK efflux ratio is 1.11; the intrinsic clearance, human liver microsomes stood at 0.302 L/h/kg; the intrinsic clearance, rat liver microsomes turned out to be 3.06 L/h/kg; the aqueous solubility was 0.0597 mg/mL (≈ 161 µM).
On the same counts, the results for `CNC(=O)Cc1nc(-c2cncc(C)c2)cs1` are 0.978, 0.351 L/h/kg, 0.868 L/h/kg and 0.0376 mg/mL (≈ 152 µM).
Take `CCc1c(C(=O)N2CC[C@@](O)(CC(C)C)[C@@H](Oc3ccc(F)cc3)C2)[nH]c2ccc(C)cc12`: the MDR1-MDCK efflux ratio was 4.15; the intrinsic clearance, human liver microsomes came out at 6.21 L/h/kg; the intrinsic clearance, rat liver microsomes was determined as 77.6 L/h/kg.
For `CCc1cnccc1C(=O)Nc1cnccn1`, the MDR1-MDCK efflux ratio came out at 0.767; the intrinsic clearance, human liver microsomes is ≤ 0.284 L/h/kg; the intrinsic clearance, rat liver microsomes was 1.03 L/h/kg.
With `Cn1c(-c2ccccc2)cnc1NCc1ccccc1`, the MDR1-MDCK efflux ratio is 0.501; the intrinsic clearance, human liver microsomes turned out to be 30.4 L/h/kg; the intrinsic clearance, rat liver microsomes worked out at 202 L/h/kg; the aqueous solubility was 0.0277 mg/mL (≈ 105 µM).
As for `CNCc1cc(N(C)C)nc(C2CCCN2C(=O)COc2ccc(F)cc2)n1` (stereo not drawn), the MDR1-MDCK efflux ratio came to 46.7; the intrinsic clearance, human liver microsomes was ≤ 0.284 L/h/kg; the intrinsic clearance, rat liver microsomes stood at 14.7 L/h/kg.
For `O=C(CC/C=C/c1ccccc1)Nc1ccccc1N1CCOC1=O`, the MDR1-MDCK efflux ratio is 2.45; the intrinsic clearance, human liver microsomes worked out at 1.95 L/h/kg; the intrinsic clearance, rat liver microsomes is 46.5 L/h/kg.
Turning to `CSc1ccc(-c2ccc3n(c2=O)C[C@@H]2CNC[C@H]3C2)cc1`, the MDR1-MDCK efflux ratio stood at 1.42; the intrinsic clearance, human liver microsomes amounted to 0.3 L/h/kg; the intrinsic clearance, rat liver microsomes was determined as 1.16 L/h/kg; the aqueous solubility was found to be 0.0512 mg/mL (≈ 164 µM).
`Cc1ccn(-c2ccc(NCC3CC3)nn2)n1` returned an intrinsic clearance, human liver microsomes of 0.663 L/h/kg and an intrinsic clearance, rat liver microsomes of 18.3 L/h/kg.
In the case of `CN(C)C(=O)COC(=O)Cc1ccc(OC(=O)c2ccc(NC(=N)N)cc2)cc1`, the MDR1-MDCK efflux ratio came out at 0.707; the intrinsic clearance, human liver microsomes amounted to 6.12 L/h/kg; the intrinsic clearance, rat liver microsomes was determined as 56.1 L/h/kg; the aqueous solubility worked out at 0.0776 mg/mL (≈ 195 µM).
For `Cc1ccc(CCNc2nc(C)cc(C)n2)cn1`, the intrinsic clearance, human liver microsomes was 0.762 L/h/kg and the intrinsic clearance, rat liver microsomes was 11.5 L/h/kg.
In the case of `CN(CCc1ccncc1)c1ncccc1C#N`, the MDR1-MDCK efflux ratio amounted to 0.743; the intrinsic clearance, human liver microsomes turned out to be 2.66 L/h/kg; the intrinsic clearance, rat liver microsomes came to 33.1 L/h/kg.
For `COc1cccc(CN2CCc3nc(-c4cnc(C)cn4)nc(O)c3C2)c1`, the intrinsic clearance, human liver microsomes was ≤ 0.284 L/h/kg and the intrinsic clearance, rat liver microsomes is 2.29 L/h/kg.
As to `O=C(NCCc1ccc2c(c1)OCO2)N1CCc2sccc2C1`, the MDR1-MDCK efflux ratio amounted to 0.646; the intrinsic clearance, human liver microsomes worked out at 9.83 L/h/kg; the intrinsic clearance, rat liver microsomes is 74.7 L/h/kg; the aqueous solubility was 0.0456 mg/mL (≈ 138 µM).
Regarding `N#Cc1cccc(CNCc2ccccn2)c1`, the MDR1-MDCK efflux ratio worked out at 0.554; the intrinsic clearance, human liver microsomes is ≤ 0.284 L/h/kg; the intrinsic clearance, rat liver microsomes is 1.82 L/h/kg.
As for `Cc1cc(CN(C)Cc2cscn2)no1`, the MDR1-MDCK efflux ratio worked out at 0.537; the intrinsic clearance, human liver microsomes is ≤ 0.284 L/h/kg; the intrinsic clearance, rat liver microsomes worked out at 1.5 L/h/kg; the aqueous solubility amounted to 0.0286 mg/mL (≈ 128 µM).
With `C[C@H](Cn1nc2c(cc1=O)CCCCC2)NC(=O)Cc1cccs1`, the intrinsic clearance, human liver microsomes amounted to 9.21 L/h/kg and the intrinsic clearance, rat liver microsomes is 49 L/h/kg.
On the same counts, the results for `CSC1(CNc2cncc(Cl)n2)CCOCC1` are 0.61 L/h/kg and 31.7 L/h/kg.
On to `CC(=O)Nc1cccc(OC(=O)N2CCOCC2)c1`, for which the MDR1-MDCK efflux ratio was found to be 2.62; the intrinsic clearance, human liver microsomes was determined as 0.452 L/h/kg; the intrinsic clearance, rat liver microsomes is ≤ 0.64 L/h/kg; the aqueous solubility is 0.0567 mg/mL (≈ 215 µM).
`C=CCc1ccccc1OCC(O)CNC(C)C` (stereo not drawn) yielded a fraction unbound, rat plasma of 0.313.
In the case of `C=CC(=O)Nc1cccc(Nc2nc(Nc3ccc(OCCOC)cc3)ncc2F)c1`, the MDR1-MDCK efflux ratio was determined as 3.94; the intrinsic clearance, human liver microsomes was 1.92 L/h/kg; the intrinsic clearance, rat liver microsomes worked out at 23.4 L/h/kg; the aqueous solubility came to 0.0038 mg/mL (≈ 8.97 µM).
`O=C(Nc1cc(C2CC2)n[nH]1)C1CCN(C(=O)COc2ccccc2)CC1` had an aqueous solubility of 0.0425 mg/mL (≈ 115 µM).
Take `CC(C)c1cc(C(=O)N2Cc3ccc(CN4CCN(C)CC4)cc3C2)c(O)cc1O`: the MDR1-MDCK efflux ratio was found to be 24.3; the intrinsic clearance, human liver microsomes is ≤ 0.284 L/h/kg; the intrinsic clearance, rat liver microsomes turned out to be 3.02 L/h/kg; the aqueous solubility was 0.0446 mg/mL (≈ 109 µM).
